Laboratory results as given in ChEMBL document CHEMBL3217532, “New analyses of MIC90 data to aid antibacterial drug discovery” (2011).
Values after ≈ are worked out from the molar mass of the structure shown.

Experiments:
Type in all cases: functional
Pseudomonas aeruginosa [1] = experiment: Antimicrobial activity against Pseudomonas aeruginosa 1569-05
Pseudomonas aeruginosa [2] = experiment: Antimicrobial activity against Pseudomonas aeruginosa 1527-08
Pseudomonas aeruginosa [3] = experiment: Antimicrobial activity against Pseudomonas aeruginosa 1570-05
Pseudomonas aeruginosa [4] = experiment: Antimicrobial activity against Pseudomonas aeruginosa 1953-00
Pseudomonas aeruginosa [5] = experiment: Antimicrobial activity against Pseudomonas aeruginosa 1563-00
Pseudomonas aeruginosa [6] = experiment: Antimicrobial activity against Pseudomonas aeruginosa PA-4990
Pseudomonas aeruginosa [7] = experiment: Antimicrobial activity against Pseudomonas aeruginosa 1612-09
Pseudomonas aeruginosa [8] = experiment: Antimicrobial activity against Pseudomonas aeruginosa 1565-05
Pseudomonas aeruginosa [9] = experiment: Antimicrobial activity against Pseudomonas aeruginosa 1761-00
Pseudomonas aeruginosa [10] = experiment: Antimicrobial activity against Pseudomonas aeruginosa 1513-08
Pseudomonas aeruginosa [11] = experiment: Antimicrobial activity against Pseudomonas aeruginosa 1753-00
Pseudomonas aeruginosa [12] = experiment: Antimicrobial activity against Pseudomonas aeruginosa 1526-08
Pseudomonas aeruginosa [13] = experiment: Antimicrobial activity against Pseudomonas aeruginosa 1764-00
Pseudomonas aeruginosa [14] = experiment: Antimicrobial activity against Pseudomonas aeruginosa 1521-08
Pseudomonas aeruginosa [15] = experiment: Antimicrobial activity against Pseudomonas aeruginosa 1752-00
Pseudomonas aeruginosa [16] = experiment: Antimicrobial activity against Pseudomonas aeruginosa 1561-05
Pseudomonas aeruginosa [17] = experiment: Antimicrobial activity against Pseudomonas aeruginosa 1619-08
Pseudomonas aeruginosa [18] = experiment: Antimicrobial activity against Pseudomonas aeruginosa 1611-09
Pseudomonas aeruginosa [19] = experiment: Antimicrobial activity against Pseudomonas aeruginosa 1510-08
Pseudomonas aeruginosa [20] = experiment: Antimicrobial activity against Pseudomonas aeruginosa 1956-00
Pseudomonas aeruginosa [21] = experiment: Antimicrobial activity against Pseudomonas aeruginosa 1613-09
Pseudomonas aeruginosa [22] = experiment: Antimicrobial activity against Pseudomonas aeruginosa 1512-08
Pseudomonas aeruginosa [23] = experiment: Antimicrobial activity against Pseudomonas aeruginosa 1767-00
Pseudomonas aeruginosa [24] = experiment: Antimicrobial activity against Pseudomonas aeruginosa 1568-05
Pseudomonas aeruginosa [25] = experiment: Antimicrobial activity against Pseudomonas aeruginosa 1766-00
Pseudomonas aeruginosa [26] = experiment: Antimicrobial activity against Pseudomonas aeruginosa PA-4995
Pseudomonas aeruginosa [27] = experiment: Antimicrobial activity against Pseudomonas aeruginosa 1952-00
Pseudomonas aeruginosa [28] = experiment: Antimicrobial activity against Pseudomonas aeruginosa PA-75
Pseudomonas aeruginosa [29] = experiment: Antimicrobial activity against Pseudomonas aeruginosa PA-4624
Pseudomonas aeruginosa [30] = experiment: Antimicrobial activity against Pseudomonas aeruginosa PA-4997
Pseudomonas aeruginosa [31] = experiment: Antimicrobial activity against Pseudomonas aeruginosa 1768-00
Pseudomonas aeruginosa [32] = experiment: Antimicrobial activity against Pseudomonas aeruginosa PA-4999
Pseudomonas aeruginosa [33] = experiment: Antimicrobial activity against Pseudomonas aeruginosa PA-1757
Pseudomonas aeruginosa [34] = experiment: Antimicrobial activity against Pseudomonas aeruginosa 1615-09
Pseudomonas aeruginosa [35] = experiment: Antimicrobial activity against Pseudomonas aeruginosa 1515-08
Pseudomonas aeruginosa [36] = experiment: Antimicrobial activity against Pseudomonas aeruginosa 1523-08
Pseudomonas aeruginosa [37] = experiment: Antimicrobial activity against Pseudomonas aeruginosa 1957-00
Pseudomonas aeruginosa [38] = experiment: Antimicrobial activity against Pseudomonas aeruginosa 1760-00
Pseudomonas aeruginosa [39] = experiment: Antimicrobial activity against Pseudomonas aeruginosa 1765-00
Pseudomonas aeruginosa [40] = experiment: Antimicrobial activity against Pseudomonas aeruginosa 1514-08
Pseudomonas aeruginosa [41] = experiment: Antimicrobial activity against Pseudomonas aeruginosa 1564-05
Pseudomonas aeruginosa [42] = experiment: Antimicrobial activity against Pseudomonas aeruginosa PA-4993
Pseudomonas aeruginosa [43] = experiment: Antimicrobial activity against Pseudomonas aeruginosa PA-4991
Pseudomonas aeruginosa [44] = experiment: Antimicrobial activity against Pseudomonas aeruginosa 1614-09
Pseudomonas aeruginosa [45] = experiment: Antimicrobial activity against Pseudomonas aeruginosa 1566-05
Pseudomonas aeruginosa [46] = experiment: Antimicrobial activity against Pseudomonas aeruginosa 1951-00
Pseudomonas aeruginosa [47] = experiment: Antimicrobial activity against Pseudomonas aeruginosa 1509-08
Pseudomonas aeruginosa [48] = experiment: Antimicrobial activity against Pseudomonas aeruginosa 1562-05
Pseudomonas aeruginosa [49] = experiment: Antimicrobial activity against Pseudomonas aeruginosa 1954-00
Pseudomonas aeruginosa [50] = experiment: Antimicrobial activity against Pseudomonas aeruginosa 1567-05
Pseudomonas aeruginosa [51] = experiment: Antimicrobial activity against Pseudomonas aeruginosa 1955-00

Compound: C[C@H](O)Cn1c(-c2cc(=O)c(O)c[nH]2)nn(S(=O)(=O)NC(=O)N2C(=O)[C@@H](NC(=O)/C(=N\OC(C)(C)C(=O)O)c3csc(N)n3)[C@@H]2C)c1=O
- MIC90 (Pseudomonas aeruginosa [1]): 0.25 µg/mL (≈ 0.351 µM)
- MIC90 (Pseudomonas aeruginosa [2]): 0.25 µg/mL (≈ 0.351 µM)
- MIC90 (Pseudomonas aeruginosa [3]): 0.125 µg/mL (≈ 0.175 µM)
- MIC90 (Pseudomonas aeruginosa [4]): 0.25 µg/mL (≈ 0.351 µM)
- MIC90 (Pseudomonas aeruginosa [5]): 0.125 µg/mL (≈ 0.175 µM)
- MIC90 (Pseudomonas aeruginosa [6]): 0.125 µg/mL (≈ 0.175 µM)
- MIC90 (Pseudomonas aeruginosa [7]): 0.5 µg/mL (≈ 0.702 µM)
- MIC90 (Pseudomonas aeruginosa [8]): 0.25 µg/mL (≈ 0.351 µM)
- MIC90 (Pseudomonas aeruginosa [9]): 0.5 µg/mL (≈ 0.702 µM)
- MIC90 (Pseudomonas aeruginosa [10]): 0.5 µg/mL (≈ 0.702 µM)
- MIC90 (Pseudomonas aeruginosa [11]): 0.5 µg/mL (≈ 0.702 µM)
- MIC90 (Pseudomonas aeruginosa [12]): 0.125 µg/mL (≈ 0.175 µM)
- MIC90 (Pseudomonas aeruginosa [13]): 0.06 µg/mL (≈ 0.0842 µM)
- MIC90 (Pseudomonas aeruginosa [14]): 0.5 µg/mL (≈ 0.702 µM)
- MIC90 (Pseudomonas aeruginosa [15]): 0.25 µg/mL (≈ 0.351 µM)
- MIC90 (Pseudomonas aeruginosa [16]): 0.5 µg/mL (≈ 0.702 µM)
- MIC90 (Pseudomonas aeruginosa [17]): 0.03 µg/mL (≈ 0.0421 µM)
- MIC90 (Pseudomonas aeruginosa [18]): 0.06 µg/mL (≈ 0.0842 µM)
- MIC90 (Pseudomonas aeruginosa [19]): 0.5 µg/mL (≈ 0.702 µM)
- MIC90 (Pseudomonas aeruginosa [20]): 0.06 µg/mL (≈ 0.0842 µM)
- MIC90 (Pseudomonas aeruginosa [21]): 0.25 µg/mL (≈ 0.351 µM)
- MIC90 (Pseudomonas aeruginosa [22]): 0.25 µg/mL (≈ 0.351 µM)
- MIC90 (Pseudomonas aeruginosa [23]): 0.125 µg/mL (≈ 0.175 µM)
- MIC90 (Pseudomonas aeruginosa [24]): 0.25 µg/mL (≈ 0.351 µM)
- MIC90 (Pseudomonas aeruginosa [25]): 1 µg/mL (≈ 1.4 µM)
- MIC90 (Pseudomonas aeruginosa [26]): 0.06 µg/mL (≈ 0.0842 µM)
- MIC90 (Pseudomonas aeruginosa [27]): 0.25 µg/mL (≈ 0.351 µM)
- MIC90 (Pseudomonas aeruginosa [28]): 0.25 µg/mL (≈ 0.351 µM)
- MIC90 (Pseudomonas aeruginosa [29]): 0.5 µg/mL (≈ 0.702 µM)
- MIC90 (Pseudomonas aeruginosa [30]): 0.25 µg/mL (≈ 0.351 µM)
- MIC90 (Pseudomonas aeruginosa [31]): 0.06 µg/mL (≈ 0.0842 µM)
- MIC90 (Pseudomonas aeruginosa [32]): 0.25 µg/mL (≈ 0.351 µM)
- MIC90 (Pseudomonas aeruginosa [33]): 4 µg/mL (≈ 5.61 µM)
- MIC90 (Pseudomonas aeruginosa [34]): 0.25 µg/mL (≈ 0.351 µM)
- MIC90 (Pseudomonas aeruginosa [35]): 0.5 µg/mL (≈ 0.702 µM)
- MIC90 (Pseudomonas aeruginosa [36]): 0.25 µg/mL (≈ 0.351 µM)
- MIC90 (Pseudomonas aeruginosa [37]): 0.06 µg/mL (≈ 0.0842 µM)
- MIC90 (Pseudomonas aeruginosa [38]): 0.5 µg/mL (≈ 0.702 µM)
- MIC90 (Pseudomonas aeruginosa [39]): 0.5 µg/mL (≈ 0.702 µM)
- MIC90 (Pseudomonas aeruginosa [40]): 0.5 µg/mL (≈ 0.702 µM)
- MIC90 (Pseudomonas aeruginosa [41]): 0.125 µg/mL (≈ 0.175 µM)
- MIC90 (Pseudomonas aeruginosa [42]): 0.25 µg/mL (≈ 0.351 µM)
- MIC90 (Pseudomonas aeruginosa [43]): 0.25 µg/mL (≈ 0.351 µM)
- MIC90 (Pseudomonas aeruginosa [44]): 0.25 µg/mL (≈ 0.351 µM)
- MIC90 (Pseudomonas aeruginosa [45]): 0.125 µg/mL (≈ 0.175 µM)
- MIC90 (Pseudomonas aeruginosa [46]): 0.25 µg/mL (≈ 0.351 µM)
- MIC90 (Pseudomonas aeruginosa [47]): 0.5 µg/mL (≈ 0.702 µM)
- MIC90 (Pseudomonas aeruginosa [48]): 0.06 µg/mL (≈ 0.0842 µM)
- MIC90 (Pseudomonas aeruginosa [49]): 0.03 µg/mL (≈ 0.0421 µM)
- MIC90 (Pseudomonas aeruginosa [50]): 0.125 µg/mL (≈ 0.175 µM)
- MIC90 (Pseudomonas aeruginosa [51]): 0.125 µg/mL (≈ 0.175 µM)

Compound: CC(C)(O/N=C(\C(=O)N[C@H]1CN(C(=O)NS(=O)(=O)n2nc(-c3cc(=O)c(O)c[nH]3)n(C[C@@H](O)CO)c2=O)C1=O)c1csc(N)n1)C(=O)O
- MIC90 (Pseudomonas aeruginosa [1]): 0.25 µg/mL (≈ 0.35 µM)
- MIC90 (Pseudomonas aeruginosa [2]): 0.25 µg/mL (≈ 0.35 µM)
- MIC90 (Pseudomonas aeruginosa [3]): 0.125 µg/mL (≈ 0.175 µM)
- MIC90 (Pseudomonas aeruginosa [4]): 0.5 µg/mL (≈ 0.7 µM)
- MIC90 (Pseudomonas aeruginosa [5]): 0.125 µg/mL (≈ 0.175 µM)
- MIC90 (Pseudomonas aeruginosa [6]): 0.125 µg/mL (≈ 0.175 µM)
- MIC90 (Pseudomonas aeruginosa [7]): 0.5 µg/mL (≈ 0.7 µM)
- MIC90 (Pseudomonas aeruginosa [8]): 0.125 µg/mL (≈ 0.175 µM)
- MIC90 (Pseudomonas aeruginosa [9]): 1 µg/mL (≈ 1.4 µM)
- MIC90 (Pseudomonas aeruginosa [10]): 0.5 µg/mL (≈ 0.7 µM)
- MIC90 (Pseudomonas aeruginosa [11]): 0.25 µg/mL (≈ 0.35 µM)
- MIC90 (Pseudomonas aeruginosa [12]): 0.5 µg/mL (≈ 0.7 µM)
- MIC90 (Pseudomonas aeruginosa [13]): 0.125 µg/mL (≈ 0.175 µM)
- MIC90 (Pseudomonas aeruginosa [14]): 0.5 µg/mL (≈ 0.7 µM)
- MIC90 (Pseudomonas aeruginosa [15]): 0.5 µg/mL (≈ 0.7 µM)
- MIC90 (Pseudomonas aeruginosa [16]): 1 µg/mL (≈ 1.4 µM)
- MIC90 (Pseudomonas aeruginosa [17]): 0.06 µg/mL (≈ 0.084 µM)
- MIC90 (Pseudomonas aeruginosa [18]): 0.125 µg/mL (≈ 0.175 µM)
- MIC90 (Pseudomonas aeruginosa [19]): 8 µg/mL (≈ 11.2 µM)
- MIC90 (Pseudomonas aeruginosa [20]): 0.06 µg/mL (≈ 0.084 µM)
- MIC90 (Pseudomonas aeruginosa [21]): 0.5 µg/mL (≈ 0.7 µM)
- MIC90 (Pseudomonas aeruginosa [22]): 0.25 µg/mL (≈ 0.35 µM)
- MIC90 (Pseudomonas aeruginosa [23]): 0.125 µg/mL (≈ 0.175 µM)
- MIC90 (Pseudomonas aeruginosa [24]): 0.25 µg/mL (≈ 0.35 µM)
- MIC90 (Pseudomonas aeruginosa [25]): 16 µg/mL (≈ 22.4 µM)
- MIC90 (Pseudomonas aeruginosa [26]): 0.125 µg/mL (≈ 0.175 µM)
- MIC90 (Pseudomonas aeruginosa [27]): 0.125 µg/mL (≈ 0.175 µM)
- MIC90 (Pseudomonas aeruginosa [28]): 0.25 µg/mL (≈ 0.35 µM)
- MIC90 (Pseudomonas aeruginosa [29]): 0.25 µg/mL (≈ 0.35 µM)
- MIC90 (Pseudomonas aeruginosa [30]): 0.25 µg/mL (≈ 0.35 µM)
- MIC90 (Pseudomonas aeruginosa [31]): 0.06 µg/mL (≈ 0.084 µM)
- MIC90 (Pseudomonas aeruginosa [32]): 0.25 µg/mL (≈ 0.35 µM)
- MIC90 (Pseudomonas aeruginosa [33]): 8 µg/mL (≈ 11.2 µM)
- MIC90 (Pseudomonas aeruginosa [34]): 0.25 µg/mL (≈ 0.35 µM)
- MIC90 (Pseudomonas aeruginosa [35]): 0.25 µg/mL (≈ 0.35 µM)
- MIC90 (Pseudomonas aeruginosa [36]): 0.25 µg/mL (≈ 0.35 µM)
- MIC90 (Pseudomonas aeruginosa [37]): 0.06 µg/mL (≈ 0.084 µM)
- MIC90 (Pseudomonas aeruginosa [38]): 0.25 µg/mL (≈ 0.35 µM)
- MIC90 (Pseudomonas aeruginosa [39]): 0.5 µg/mL (≈ 0.7 µM)
- MIC90 (Pseudomonas aeruginosa [40]): 0.5 µg/mL (≈ 0.7 µM)
- MIC90 (Pseudomonas aeruginosa [41]): 0.125 µg/mL (≈ 0.175 µM)
- MIC90 (Pseudomonas aeruginosa [42]): 0.125 µg/mL (≈ 0.175 µM)
- MIC90 (Pseudomonas aeruginosa [43]): 0.25 µg/mL (≈ 0.35 µM)
- MIC90 (Pseudomonas aeruginosa [44]): 0.25 µg/mL (≈ 0.35 µM)
- MIC90 (Pseudomonas aeruginosa [45]): 0.125 µg/mL (≈ 0.175 µM)
- MIC90 (Pseudomonas aeruginosa [46]): 0.25 µg/mL (≈ 0.35 µM)
- MIC90 (Pseudomonas aeruginosa [47]): 2 µg/mL (≈ 2.8 µM)
- MIC90 (Pseudomonas aeruginosa [48]): 0.125 µg/mL (≈ 0.175 µM)
- MIC90 (Pseudomonas aeruginosa [49]): 0.06 µg/mL (≈ 0.084 µM)
- MIC90 (Pseudomonas aeruginosa [50]): 0.125 µg/mL (≈ 0.175 µM)
- MIC90 (Pseudomonas aeruginosa [51]): 0.125 µg/mL (≈ 0.175 µM)
